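A five-concentration, 48-hour dose response in 96-well plates underlies each endpoint, interpolated linearly between surrounding concentrations. GI50: concentration for 50% inhibition of growth. TGI: total growth inhibition.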
Columns and labels:
Assay in all cases: NCI-60 cell line screen, 48 h
SF-268 CNS = tested on: SF-268 CNS
SK-MEL-28 melanoma = tested on: SK-MEL-28 melanoma
UO-31 renal = tested on: UO-31 renal
MOLT-4 leukemia = tested on: MOLT-4 leukemia
ACHN renal = tested on: ACHN renal
OVCAR-8 ovarian = tested on: OVCAR-8 ovarian
K-562 leukemia = tested on: K-562 leukemia
NCI-H522 lung = tested on: NCI-H522 lung
BT-549 breast = tested on: BT-549 breast
SR leukemia = tested on: SR leukemia

SMILES | GI50 (SF-268 CNS) | TGI (SF-268 CNS) | GI50 (SK-MEL-28 melanoma) | TGI (SK-MEL-28 melanoma) | GI50 (UO-31 renal) | TGI (UO-31 renal) | GI50 (MOLT-4 leukemia) | TGI (MOLT-4 leukemia) | GI50 (ACHN renal) | TGI (ACHN renal) | GI50 (OVCAR-8 ovarian) | TGI (OVCAR-8 ovarian) | GI50 (K-562 leukemia) | TGI (K-562 leukemia) | GI50 (NCI-H522 lung) | TGI (NCI-H522 lung) | GI50 (BT-549 breast) | TGI (BT-549 breast) | TGI (SR leukemia)
N[C@@H]1CCCC[C@@H]1N.O=C([O-])CN(CP(=O)([O-])[O-])CP(=O)([O-])[O-].[Pt+2] | > 100 µM | > 100 µM | > 100 µM | > 100 µM | > 100 µM | > 100 µM | 82.5 µM | > 100 µM | > 100 µM | > 100 µM | > 100 µM | > 100 µM | > 100 µM | > 100 µM | > 100 µM | > 100 µM |  |  | 
O=C1c2ccn(CCCCN3CCCCC3)c2C(=O)c2c1c(O)c1ccccc1c2O | 14.9 µM | 42.7 µM | 3.73 µM | 44.2 µM | 20.9 µM | > 100 µM | 3.49 µM | > 100 µM | 18.7 µM | 38.5 µM | 3.52 µM | > 100 µM | 2.68 µM |  | 11.1 µM | 56 µM | 17.7 µM | 38.3 µM | 
C=C1CC2(CCCC3(CC(=C)C(=O)O3)C2(C)C)OC1=O (stereo unspecified) |  | 55.5 µM |  | 4.61 µM |  | 9.53 µM |  | 1.03 µM |  | 2.4 µM |  | 7.55 µM |  | 13.7 µM |  | 3.7 µM |  | 17 µM | 
CCCCN(CCCC)C(=O)C(=O)C(C)C(=O)CC (stereo unspecified) |  | > 100 µM |  | > 100 µM |  | > 100 µM |  | > 100 µM |  | > 100 µM |  | > 100 µM |  | > 100 µM |  | > 100 µM |  |  | 
BrC1=CC=C2NCCCCCCN=C3C=CC(Br)=CC=C3NCCCCCCN=C2C=C1 |  | > 25.5 µM |  | > 25.5 µM |  | > 25.5 µM |  | > 25.5 µM |  | > 25.5 µM |  | > 25.5 µM |  | > 25.5 µM |  | > 25.5 µM |  |  | 
C1=C(c2ccccc2)SC=C(c2ccccc2)S1 |  | > 100 µM |  | > 100 µM |  | > 100 µM |  | > 100 µM |  | > 100 µM |  | > 100 µM |  | 89.3 µM |  |  |  | 84.8 µM | 
Oc1c(I)cc(-c2nc3ccccc3s2)cc1CN(Cc1ccccn1)Cc1ccccn1 | 0.301 µM | 95.2 µM | 0.411 µM | 43 µM | 0.272 µM | 2.35 µM | 0.327 µM | > 100 µM | 0.286 µM | 3.37 µM | 0.335 µM | 37.5 µM | 0.385 µM | > 100 µM | 0.415 µM | 14.4 µM | 0.394 µM | 29.8 µM | 
C=CCC(N[C@H](CO)c1ccccc1)c1cn(S(=O)(=O)c2ccc(C)cc2)c2ccccc12 (stereo partly specified) | > 100 µM | > 100 µM | 41.6 µM | > 100 µM | 94.8 µM | > 100 µM | 15.2 µM | 41.4 µM | 18 µM | 45.2 µM | 10.8 µM | 29.5 µM | 2.72 µM |  | 18.6 µM | 47.7 µM | 20.5 µM | 46.5 µM | 
CC1CCP(=O)(c2ccccc2)CC1 (stereo unspecified) |  | > 100 µM |  | > 100 µM |  | > 100 µM |  | > 100 µM |  | > 100 µM |  | > 100 µM |  | > 100 µM |  |  |  |  | 
CC(=O)[C-](C(C)=O)c1ccccc1.CC(=O)[C-](C(C)=O)c1ccccc1.CC[O-].CC[O-].[Ti+4] | > 100 µM | > 100 µM | > 100 µM | > 100 µM | > 100 µM | > 100 µM | > 100 µM | > 100 µM | > 100 µM | > 100 µM | > 100 µM | > 100 µM | > 100 µM | > 100 µM | > 100 µM | > 100 µM |  |  | 
COc1cc(Cl)c2c3c(c(C(=O)c4ccccc4)oc13)CCC2 |  |  |  | > 100 µM |  |  |  | > 100 µM |  | > 100 µM |  | > 100 µM |  | > 100 µM |  |  |  |  | 
O=[N+]([O-])/C=C\c1c[nH]c2ccc(OCc3ccccc3)cc12 |  | 25.6 µM |  | 9.47 µM |  | 15.2 µM |  | > 100 µM |  | 4.72 µM |  | 17.1 µM |  | 6.88 µM |  | 22.4 µM |  |  | 4.91 µM
N#C/C(N)=C(\C#N)N=Cc1csc2ccccc12 |  |  | 37.5 µM | > 100 µM | 91.2 µM | > 100 µM | 4.08 µM | > 100 µM | 29.9 µM | > 100 µM | 20.8 µM | 55.7 µM | 95.5 µM | > 100 µM | 28.9 µM | > 100 µM |  |  | 
CCCCCCNc1nc(N2CCOCC2)c2[nH]c(NCCCCCC)nc2n1 | 1.78 µM | 3.44 µM | 1.65 µM | 3.01 µM | 1.36 µM | 2.84 µM |  |  | 1.6 µM | 2.95 µM | 1.77 µM | 3.74 µM |  |  | 1.58 µM | 3.37 µM | 1.66 µM | 3.04 µM | 
COc1ccc(C(=O)COc2cccc(/C=C3\CSc4ccc(Cl)cc4C3=O)c2)cc1 | 14.9 µM | 30.3 µM | 15.4 µM | 29 µM | 11.5 µM | 25.5 µM | 2.25 µM | 5.53 µM | 11.9 µM | 24.6 µM | 9.35 µM | 56.3 µM |  |  | 2.07 µM | 4.9 µM | 12.9 µM | 33.5 µM | 
Cc1ccc(NC(=O)C2C(=O)N(c3ccc(C)c(C)c3)C(=O)/C2=N\NC(N)=S)cc1C (stereo unspecified) |  | > 100 µM |  | > 100 µM |  | > 100 µM |  | > 100 µM |  | > 100 µM |  |  |  | > 100 µM |  | > 100 µM |  |  | > 100 µM
Cn1c2ccccc2c(=O)c2c([N+](=O)[O-])ccc(NCCN)c21 |  | 26 µM |  | 29.2 µM |  | 18.8 µM |  | 7.95 µM |  | 19.7 µM |  | 24.5 µM |  |  |  | 20.5 µM |  |  | > 100 µM
COc1ccc(C(=O)C(C(=O)C(=O)Nc2nccs2)c2ccc(OC)cc2)cc1 (stereo unspecified) |  | > 100 µM |  | > 100 µM |  | > 100 µM |  | > 100 µM |  | > 100 µM |  | > 100 µM |  | > 100 µM |  | > 100 µM |  |  | 
COC1C(O)C(C)OC(OC2CC3CCC4C(CCC5(C)C(C6=CC(=O)OC6)CCC45O)C3(O)C(OC(C)=O)C2)C1O (stereo unspecified) |  | 2.54 µM |  | > 37.6 µM |  | 4.51 µM |  |  |  | 2.13 µM |  | 5.35 µM |  | > 100 µM |  | 3.21 µM |  | 2.02 µM | 
c1ccc2cc(Cn3c[n+](Cc4ccc5ccccc5c4)c4ccccc43)ccc2c1 | 1.31 µM | 2.72 µM | 1.52 µM | 3.11 µM | 1.74 µM | 4.62 µM |  |  | 1.94 µM | 4 µM |  |  |  |  |  |  |  |  | 
COC(=O)OCc1ccc2c(c1)C(=O)c1c-2n(CCCBr)c(=O)c2cc([N+](=O)[O-])ccc12 | > 100 µM | > 100 µM | > 100 µM | > 100 µM | > 100 µM | > 100 µM | 31.6 µM | > 100 µM | 24.2 µM | 93.8 µM | > 100 µM | > 100 µM |  |  | > 100 µM | > 100 µM | 44.9 µM | > 100 µM | 
CCCCCC(O)(CCCCC)CCCCCCCCC1=C(O)c2[nH]c(=O)ccc2C(=O)C1=O |  | 19.1 µM |  | 20.7 µM |  | 26.1 µM |  | 55.5 µM |  | 19.2 µM |  | 23.1 µM |  | 26.7 µM |  | 20.8 µM |  |  | 96.7 µM
CC1(C)CC(=O)C(=[N+]=[N-])C(=O)C1 |  | > 100 µM |  | > 100 µM |  |  |  |  |  | > 100 µM |  |  |  | > 100 µM |  | > 100 µM |  |  | 
CN1CCN(c2ccc(NC3=C(Cl)C(=O)c4ncccc4C3=O)cc2C#N)CC1 | 2.09 µM | 5.27 µM | 1.86 µM | 3.26 µM | 1.34 µM | 2.61 µM | 1.04 µM | 5.31 µM | 1.15 µM | 2.36 µM | 2.59 µM | 9.37 µM | 0.312 µM | > 100 µM |  |  | 2.25 µM | 5.95 µM | 
COc1cc2c([C@@H](OC(=O)c3ccccc3)c3ccc4c(c3)OCO4)nccc2c(OC)c1OC |  | > 100 µM |  |  |  | 24.9 µM |  | > 100 µM |  |  |  | > 100 µM |  | > 100 µM |  | > 100 µM |  |  | > 100 µM
O=C(O)/C(=C\c1ccccc1Cl)S(=O)(=O)c1ccccc1 |  | > 100 µM |  |  |  | > 100 µM |  | > 100 µM |  | > 100 µM |  | > 100 µM |  | > 100 µM |  | > 100 µM |  |  | 
c1cc[c]([Sn]([S]c2cccc3cccnc23)([S]c2cccc3cccnc23)[c]2ccccc2)cc1 | 0.331 µM | 1.48 µM | 0.196 µM | 0.532 µM | 0.182 µM | 0.514 µM | 0.101 µM | 0.542 µM | 0.209 µM | 0.496 µM | 0.25 µM | 0.895 µM |  |  |  |  |  |  | 
COc1cc(NCC2COc3c(ccc(OC)c3OC)C2=O)c([N+](=O)[O-])cc1OC (stereo unspecified) |  | > 100 µM |  | > 100 µM |  | > 100 µM |  | > 100 µM |  | > 100 µM |  | > 100 µM |  | > 100 µM |  | > 100 µM |  |  | > 100 µM
COC(=O)/C(=C/c1ccc(OC)cc1)NC(=O)c1ccccc1 |  | > 100 µM |  | > 100 µM |  | > 100 µM |  | > 100 µM |  | > 100 µM |  | > 100 µM |  | > 100 µM |  |  |  |  | > 100 µM

From PubChem BioAssay (NCI)
